Laboratory results as given in ChEMBL document CHEMBL1130277, “Three-dimensional quantitative structure-activity relationships from molecular similarity matrices and genetic neural networks. 2. Applications” (J Med Chem, 1997).

Experiments:
[1] = molecular target: T1, Aryl hydrocarbon receptor (Homo sapiens, UniProt P35869)
T1 sequence (P35869 whole entry): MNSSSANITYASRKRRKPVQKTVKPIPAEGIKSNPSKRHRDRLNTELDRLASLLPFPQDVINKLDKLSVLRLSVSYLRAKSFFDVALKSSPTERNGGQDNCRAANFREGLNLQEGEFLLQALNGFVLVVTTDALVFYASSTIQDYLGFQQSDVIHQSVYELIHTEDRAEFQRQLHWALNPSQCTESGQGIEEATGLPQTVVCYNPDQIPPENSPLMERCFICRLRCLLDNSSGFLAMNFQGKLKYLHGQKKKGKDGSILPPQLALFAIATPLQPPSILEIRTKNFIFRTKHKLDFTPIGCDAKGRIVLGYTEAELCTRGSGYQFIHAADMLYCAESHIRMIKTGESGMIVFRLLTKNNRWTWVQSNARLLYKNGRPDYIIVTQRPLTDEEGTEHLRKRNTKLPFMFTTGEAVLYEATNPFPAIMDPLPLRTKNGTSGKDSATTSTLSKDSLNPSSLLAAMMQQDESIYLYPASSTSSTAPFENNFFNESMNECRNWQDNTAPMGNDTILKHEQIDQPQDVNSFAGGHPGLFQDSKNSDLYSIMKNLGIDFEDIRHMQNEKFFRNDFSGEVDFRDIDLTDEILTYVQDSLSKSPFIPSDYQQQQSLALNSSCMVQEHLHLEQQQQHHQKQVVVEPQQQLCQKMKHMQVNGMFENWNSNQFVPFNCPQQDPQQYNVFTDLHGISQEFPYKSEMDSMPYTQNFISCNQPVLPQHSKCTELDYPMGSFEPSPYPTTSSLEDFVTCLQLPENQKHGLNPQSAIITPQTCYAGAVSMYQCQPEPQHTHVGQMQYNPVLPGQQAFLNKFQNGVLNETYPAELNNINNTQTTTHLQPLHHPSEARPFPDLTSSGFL
Description: Affinity on cytosolic Aromatic hydrocarbon receptor (Ah)

[2] = molecular target: Acetylcholinesterase (Homo sapiens, UniProt P22303)
Sequence of Acetylcholinesterase (P22303 whole entry): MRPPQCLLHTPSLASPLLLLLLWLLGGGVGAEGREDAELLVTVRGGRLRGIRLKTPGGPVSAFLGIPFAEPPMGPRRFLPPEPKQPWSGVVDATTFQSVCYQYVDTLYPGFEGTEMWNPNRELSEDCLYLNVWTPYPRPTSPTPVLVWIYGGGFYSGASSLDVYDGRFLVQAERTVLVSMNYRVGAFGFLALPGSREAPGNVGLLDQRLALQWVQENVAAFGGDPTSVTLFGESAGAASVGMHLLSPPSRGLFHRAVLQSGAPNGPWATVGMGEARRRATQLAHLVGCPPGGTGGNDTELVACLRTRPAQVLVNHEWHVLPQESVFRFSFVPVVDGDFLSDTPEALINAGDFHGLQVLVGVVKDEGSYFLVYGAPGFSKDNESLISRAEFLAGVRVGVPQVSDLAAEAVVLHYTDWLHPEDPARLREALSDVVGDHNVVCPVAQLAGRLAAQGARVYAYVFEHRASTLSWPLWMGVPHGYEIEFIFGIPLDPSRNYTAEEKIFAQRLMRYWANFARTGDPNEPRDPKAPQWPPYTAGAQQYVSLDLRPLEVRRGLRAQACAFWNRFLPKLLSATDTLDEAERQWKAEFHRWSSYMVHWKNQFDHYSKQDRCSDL
Description: Inhibition acetylcholinesterase (AChE) enzyme.

Clc1cc(Cl)c2c(c1)oc1cc(Cl)c(Cl)c(Cl)c12
EC50 [1]: 0.4 µM

Clc1cc2oc3c(Cl)cccc3c2c(Cl)c1Cl
EC50 [1]: 0.35 µM

CCOCC[N+](C)(C)C
IC50 [2]: 1160 µM

Brc1cc(Br)c2c(c1)Oc1cc(Br)cc(Br)c1O2
EC50 [1]: 0.0929 µM

C=CCC[N+](C)(C)C
IC50 [2]: 847 µM

C=CC[N+](C)(C)C
IC50 [2]: 2920 µM

Brc1ccc2c(c1)Oc1ccc(Br)cc1O2
EC50 [1]: 0.0155 µM

Clc1cc2c(cc1Cl)Oc1c(Cl)c(Cl)c(Cl)c(Cl)c1O2
EC50 [1]: 0.28 µM

Clc1cc(-c2ccc(Cl)c(Cl)c2Cl)cc(Cl)c1Cl
EC50 [1]: 5 µM

C[N+](C)(C)CCS
IC50 [2]: 440 µM

COc1cccc([N+](C)(C)C)c1
IC50 [2]: 597 µM

Clc1cc(Cl)c(-c2cc(Cl)c(Cl)c(Cl)c2)cc1Cl
EC50 [1]: 16 µM

Clc1cc2c(cc1Cl)Oc1c(Cl)cccc1O2
EC50 [1]: 0.22 µM

Clc1cc(Cl)c2c(c1)Oc1cc(Cl)c(Cl)cc1O2
EC50 [1]: 0.794 µM

CCCCCC[N+](C)(C)C
IC50 [2]: 817 µM

CCC(=O)Oc1cccc([N+](C)(C)C)c1
IC50 [2]: 5.97 µM

Clc1ccc2c(c1)Oc1cc(Cl)c(Cl)cc1O2
EC50 [1]: 0.071 µM

Clc1cc2oc3c(Cl)cc(Cl)c(Cl)c3c2cc1Cl
EC50 [1]: 1.3 µM

Clc1cc2c(cc1Cl)Oc1cc(Br)c(Br)cc1O2
EC50 [1]: 0.00148 µM

Brc1ccc2c(c1)Oc1cc(Br)c(Br)cc1O2
EC50 [1]: 0.00117 µM

Clc1c(Cl)c(Cl)c2c(c1Cl)Oc1c(Cl)c(Cl)c(Cl)c(Cl)c1O2
EC50 [1]: 10 µM

Clc1ccc(-c2cc(Cl)c(Cl)c(Cl)c2Cl)cc1Cl
EC50 [1]: 7.1 µM

CCSCC[N+](C)(C)C
IC50 [2]: 1510 µM

Clc1ccc2oc3c(Cl)cc(Cl)c(Cl)c3c2c1
EC50 [1]: 10 µM

CCC(=O)Oc1ccc(C)c([N+](C)(C)C)c1
IC50 [2]: 69 µM

CCC(=O)Oc1cccc([N+](C)(C)C)c1C
IC50 [2]: 753 µM

Clc1cc(Cl)c2c(c1Cl)Oc1ccccc1O2
EC50 [1]: 13 µM

Clc1cc2oc3cc(Cl)c(Cl)cc3c2cc1Cl
EC50 [1]: 0.041 µM

CC(=O)Oc1cccc([N+](C)(C)C)c1C
IC50 [2]: 40.8 µM

Clc1ccc2c(c1)oc1cc(Cl)c(Cl)c(Cl)c12
EC50 [1]: 0.219 µM

Clc1ccc2c(oc3c(Cl)cc(Cl)c(Cl)c32)c1Cl
EC50 [1]: 0.0678 µM

Clc1cc2c(oc3c(Cl)cccc32)c(Cl)c1Cl
EC50 [1]: 0.35 µM

COc1ccc(C)c([N+](C)(C)C)c1
IC50 [2]: 345 µM

Clc1cc(Cl)c2oc3cc(Cl)c(Cl)cc3c2c1
EC50 [1]: 0.22 µM

Clc1cc2c(oc3c(Cl)cc(Cl)c(Cl)c32)c(Cl)c1Cl
EC50 [1]: 8.3 µM

CC(=O)CCC[N+](C)(C)C
IC50 [2]: 84.7 µM

Clc1cc(Cl)c2oc3c(Cl)cc(Cl)c(Cl)c3c2c1
EC50 [1]: 3.1 µM

Brc1cc(Br)c2c(c1)Oc1cc(Br)c(Br)cc1O2
EC50 [1]: 0.002 µM

Clc1cc2c(cc1Cl)Oc1c(cc(Cl)c(Cl)c1Cl)O2
EC50 [1]: 0.0794 µM

CC(=O)Nc1cccc([N+](C)(C)C)c1
IC50 [2]: 1000 µM

Clc1ccc(-c2cc(Cl)c(Cl)cc2Cl)cc1Cl
EC50 [1]: 9.1 µM

Clc1cc2oc3cc(Cl)c(Cl)c(Cl)c3c2cc1Cl
EC50 [1]: 0.0741 µM

Clc1cc2c(cc1Br)Oc1cc(Br)c(Cl)cc1O2
EC50 [1]: 0.000447 µM

Clc1cc(Cl)c2c(c1)oc1c(Cl)cc(Cl)c(Cl)c12
EC50 [1]: 20 µM

Clc1ccc2oc3c(Cl)c(Cl)c(Cl)cc3c2c1
EC50 [1]: 0.2 µM

Cc1ccc([N+](C)(C)C)cc1O
IC50 [2]: 3.11 µM

Cc1ccc(O)cc1[N+](C)(C)C
IC50 [2]: 2.82 µM

Clc1cccc2c1Oc1ccccc1O2
EC50 [1]: 100 µM

Clc1ccc(-c2cc(Cl)c(Cl)c(Cl)c2)c(Cl)c1
EC50 [1]: 14.1 µM

Brc1cc2c(cc1Br)Oc1c(cc(Br)c(Br)c1Br)O2
EC50 [1]: 0.00661 µM

Clc1ccc(-c2cc(Cl)c(Cl)c(Cl)c2)cc1
EC50 [1]: 28 µM

Clc1cc2c(cc1Cl)Oc1c(ccc(Cl)c1Cl)O2
EC50 [1]: 0.16 µM

CCC(=O)Oc1cc([N+](C)(C)C)ccc1C
IC50 [2]: 3.77 µM

Clc1cc(Cl)c2c(c1)oc1c(Cl)cccc12
EC50 [1]: 4.37 µM

Clc1cc2c(cc1Cl)Oc1cc(Br)c(Cl)cc1O2
EC50 [1]: 0.0115 µM

COc1cc([N+](C)(C)C)ccc1C
IC50 [2]: 122 µM

Clc1cc(Cl)c(-c2cc(Cl)c(Cl)c(Cl)c2)c(Cl)c1
EC50 [1]: 99.1 µM

C[N+]1(C)CCO[C@@](O)(c2ccc(N)cc2)C1
IC50 [2]: 690 µM

CC(=O)Oc1cc([N+](C)(C)C)ccc1C
IC50 [2]: 0.659 µM

Brc1ccc2c(c1)Oc1ccccc1O2
EC50 [1]: 0.295 µM

Clc1cccc2c1oc1ccccc12
EC50 [1]: 1000 µM

Clc1ccc2c(c1)oc1ccccc12
EC50 [1]: 42 µM

CCCC(=O)SCC[N+](C)(C)C
IC50 [2]: 126 µM

C=CCCC[N+](C)(C)C
IC50 [2]: 1130 µM

Clc1cc(-c2ccccc2)c(Cl)c(Cl)c1Cl
EC50 [1]: 140 µM

Clc1ccc(-c2cc(Cl)c(Cl)c(Cl)c2Cl)cc1
EC50 [1]: 4.1 µM

Clc1cc(Cl)c2c(c1)oc1c(Cl)c(Cl)c(Cl)cc12
EC50 [1]: 0.2 µM

C[N+]1(C)CCO[C@@](O)(c2ccc(C#N)cc2)C1
IC50 [2]: 11600 µM

COc1cccc([N+](C)(C)C)c1C
IC50 [2]: 239 µM

C[N+]1(C)CCO[C@@](O)(c2ccc(Cl)cc2)C1
IC50 [2]: 8130 µM

Clc1cc2oc3c(Cl)c(Cl)c(Cl)cc3c2cc1Cl
EC50 [1]: 0.0151 µM

Clc1ccc2c(c1)oc1c(Cl)c(Cl)c(Cl)cc12
EC50 [1]: 0.0251 µM

Clc1cc2c(cc1Cl)Oc1c(Cl)c(Cl)cc(Cl)c1O2
EC50 [1]: 1.1 µM

C[N+](C)(C)CCCCI
IC50 [2]: 471 µM

Clc1ccc2c(c1)Oc1c(Cl)c(Cl)c(Cl)c(Cl)c1O2
EC50 [1]: 6.46 µM

Clc1cc(Cl)c2c(c1)oc1ccc(Cl)cc12
EC50 [1]: 85.1 µM

CC(=O)Oc1ccc(C)c([N+](C)(C)C)c1
IC50 [2]: 5.33 µM

Clc1ccc(-c2ccc(Cl)c(Cl)c2Cl)cc1Cl
EC50 [1]: 4.27 µM

C[N+](C)(C)CCCl
IC50 [2]: 2390 µM

Brc1cc2c(cc1Br)Oc1cc(Br)c(Br)cc1O2
EC50 [1]: 0.0015 µM

Clc1ccc2c(c1)Oc1cc(Cl)ccc1O2
EC50 [1]: 3.2 µM

CC(=O)Nc1ccc([C@@]2(O)C[N+](C)(C)CCO2)cc1
IC50 [2]: 2070 µM

Clc1cc2oc3c(Cl)c(Cl)cc(Cl)c3c2cc1Cl
EC50 [1]: 0.2 µM

Clc1cc2oc3c(Cl)c(Cl)c(Cl)c(Cl)c3c2cc1Cl
EC50 [1]: 0.23 µM

CCCC(=O)OCC[N+](C)(C)C
IC50 [2]: 229 µM

C[C@@]1(O)C[N+](C)(C)CCO1
IC50 [2]: 1730 µM

Clc1cc2c(oc3c(Cl)c(Cl)c(Cl)cc32)c(Cl)c1Cl
EC50 [1]: 0.0468 µM

Cc1c(O)cccc1[N+](C)(C)C
IC50 [2]: 141 µM

CC(=O)Oc1cccc([N+](C)(C)C)c1
IC50 [2]: 3.01 µM

Clc1cc2c(oc3cc(Cl)c(Cl)c(Cl)c32)c(Cl)c1Cl
EC50 [1]: 0.27 µM

Clc1c(Cl)c(Cl)c2c(c1Cl)Oc1ccccc1O2
EC50 [1]: 1.3 µM

Clc1ccc(-c2ccc(Cl)c(Cl)c2)cc1Cl
EC50 [1]: 0.71 µM

C[N+](C)(C)CCCCCBr
IC50 [2]: 535 µM

C[N+]1(C)CCO[C@@](O)(C(F)(F)F)C1
IC50 [2]: 3830 µM

Clc1ccc2oc3c(Cl)c(Cl)c(Cl)c(Cl)c3c2c1
EC50 [1]: 0.12 µM

C[N+](C)(C)CCCCBr
IC50 [2]: 597 µM

C[N+]1(C)CCO[C@H](O)C1
IC50 [2]: 1760 µM

Brc1cc2c(cc1Br)Oc1c(Br)c(Br)cc(Br)c1O2
EC50 [1]: 0.017 µM

C[N+](C)(C)c1cccc(O)c1
IC50 [2]: 0.973 µM

CC(C)(C)[C@@]1(O)C[N+](C)(C)CCO1
IC50 [2]: 3710 µM

C[N+]1(C)CCO[C@@](O)(c2ccc([N+](=O)[O-])cc2)C1
IC50 [2]: 5120 µM

Clc1cc(Cl)c(-c2cc(Cl)c(Cl)cc2Cl)cc1Cl [2,2',4,4',5,5'-HEXACHLOROBIPHENYL]
EC50 [1]: 79.4 µM

Clc1cc2c(cc1Cl)Oc1cc(Cl)c(Cl)cc1O2 [2,3,7,8-TETRACHLORODIBENZO-P-DIOXIN]
EC50 [1]: 0.01 µM

Clc1ccc(-c2cc(Cl)c(Cl)c(Cl)c2)cc1Cl [POLYCHLORINATED BIPHENYL 126]
EC50 [1]: 0.13 µM
